Measured values as given in ChEMBL document CHEMBL1201862, “PubChem BioAssay data set” (2004).
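1) Cells in 96-well plates. 2) Compound, 48 h, 5 concentrations. 3) Linear interpolation between surrounding doses. 4) Unreached endpoint = highest concentration. Abbreviation: GI50, concentration required for 50% inhibition of growth.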 The source made the active and inactive calls. No stated cut-off is given here; in the data, active = GI50 up to about 1.1 µM and inactive = higher.

Experiments:
Experiment in all cases: inhibition of tumour cell growth, NCI panel, 48 h
[1] = test system: 786-0
[2] = test system: ACHN
[3] = test system: DU-145
[4] = test system: HCT-15
[5] = test system: HOP-92
[6] = test system: HT-29
[7] = test system: MOLT-4
[8] = test system: NCI-H226
[9] = test system: OVCAR-4
[10] = test system: SF-268
[11] = test system: SF-295
[12] = test system: SK-MEL-28
[13] = test system: SK-MEL-2
[14] = test system: SK-MEL-5
[15] = test system: SK-OV-3
[16] = test system: SN12C
[17] = test system: UACC-257
[18] = test system: UACC-62
[19] = test system: Malme-3M
[20] = test system: NCI-H522

Row | SMILES | GI50 [1] | GI50 [2] | GI50 [3] | GI50 [4] [µM] | GI50 [5] | GI50 [6] | GI50 [7] | GI50 [8] | GI50 [9] | GI50 [10] | GI50 [11] | GI50 [12] | GI50 [13] | GI50 [14] | GI50 [15] | GI50 [16] | GI50 [17] | GI50 [18] | GI50 [19] | GI50 [20]
1 | C=C[C@H]1CN2CCc3c([nH]c4c([C@@H]5CCCN5C)c(O)ccc34)[C@@H]2C[C@@H]1C[C@H]1c2[nH]c3ccccc3c2CCN1C | 0.437 µM (active) | 1.92 µM (inactive) | 1.48 µM (inactive) | 1.02 | 1.19 µM (inactive) | 1.4 µM (inactive) | 0.316 µM (active) | 1.67 µM (inactive) | 1.42 µM (inactive) | 1.48 µM (inactive) | 1.01 µM (active) | 1.55 µM (inactive) | 1.91 µM (inactive) | 1.66 µM (inactive) | 1.62 µM (inactive) | 1.54 µM (inactive) | 3.18 µM (inactive) | 1.68 µM (inactive) |  | 
2 | CCN(CC)C(=S)N/N=C(\C)c1cccc(C)n1 |  | 0.0184 µM (active) | 0.484 µM (active) | < 0.0249 | 1.49 µM (inactive) | < 0.01 µM (active) | < 0.01 µM (active) |  |  | 0.0593 µM (active) | 0.315 µM (active) | 0.308 µM (active) | 2.2 µM (inactive) | 0.0593 µM (active) | 1.57 µM (inactive) | 0.292 µM (active) | < 0.01 µM (active) | 0.259 µM (active) | 0.0365 µM (active) | 0.0276 µM (active)
3 | C[N+](C)(N)c1nc(N)c(C#N)c(C#N)c1C#N |  | > 10 µM (inactive) | > 10 µM (inactive) | > 10 |  | > 10 µM (inactive) | > 10 µM (inactive) | > 10 µM (inactive) | > 10 µM (inactive) | > 10 µM (inactive) | > 10 µM (inactive) | > 10 µM (inactive) | > 10 µM (inactive) | > 10 µM (inactive) | > 10 µM (inactive) | > 10 µM (inactive) |  | > 10 µM (inactive) | > 10 µM (inactive) | > 10 µM (inactive)
4 | Cn1cc(C(=O)c2nccc3c2cnc2ccccc23)ccc1=O | > 100 µM (inactive) | 12.2 µM (inactive) | > 100 µM (inactive) | > 100 | > 100 µM (inactive) | > 100 µM (inactive) | > 100 µM (inactive) | > 100 µM (inactive) | > 100 µM (inactive) | > 100 µM (inactive) | > 100 µM (inactive) | > 100 µM (inactive) | > 100 µM (inactive) | 15.3 µM (inactive) | > 100 µM (inactive) | 59.3 µM (inactive) | > 100 µM (inactive) | > 100 µM (inactive) | > 100 µM (inactive) | 
5 | O=C1NC(=O)/C(=C/c2ccc(S(=O)(=O)N/N=C/c3ccccc3)cc2)N1 | > 100 µM (inactive) | > 100 µM (inactive) | > 100 µM (inactive) | > 100 | > 100 µM (inactive) | > 100 µM (inactive) | > 100 µM (inactive) | > 100 µM (inactive) | > 100 µM (inactive) | > 100 µM (inactive) | > 100 µM (inactive) | > 100 µM (inactive) | > 100 µM (inactive) | > 100 µM (inactive) | > 100 µM (inactive) | > 100 µM (inactive) | > 100 µM (inactive) | > 100 µM (inactive) | > 100 µM (inactive) | 
6 | CC1CN=C(N(C(=O)Nc2ccc(Cl)c(Cl)c2)c2ccccc2)S1 (stereo not drawn) | 43.4 µM (inactive) | 57.8 µM (inactive) | 91.8 µM (inactive) | 27 | 38.9 µM (inactive) | 34.8 µM (inactive) | > 100 µM (inactive) |  | 41.4 µM (inactive) | 69.2 µM (inactive) | 75.7 µM (inactive) | 38.5 µM (inactive) | 23 µM (inactive) | 20.7 µM (inactive) |  | 33.6 µM (inactive) | 68.5 µM (inactive) |  | 76.7 µM (inactive) | 
7 | CC1(C)N=C(C2CCCN2C(=O)OCc2ccccc2)OC1=O (stereo not drawn) | > 100 µM (inactive) | > 100 µM (inactive) | > 100 µM (inactive) | > 100 |  | > 100 µM (inactive) | > 100 µM (inactive) | > 100 µM (inactive) |  | > 100 µM (inactive) | > 100 µM (inactive) | > 100 µM (inactive) | > 100 µM (inactive) | > 100 µM (inactive) | > 100 µM (inactive) | > 100 µM (inactive) | > 100 µM (inactive) | > 100 µM (inactive) | > 100 µM (inactive) | > 100 µM (inactive)
8 | CCSc1ncnc2c(C3OC(CO)C(O)C3O)nsc12 (stereo not drawn) |  |  | > 100 µM (inactive) | > 100 | > 100 µM (inactive) | > 100 µM (inactive) | > 100 µM (inactive) | > 100 µM (inactive) | > 100 µM (inactive) | > 100 µM (inactive) | > 100 µM (inactive) | > 100 µM (inactive) | > 100 µM (inactive) | > 100 µM (inactive) | > 100 µM (inactive) | > 100 µM (inactive) |  |  | > 100 µM (inactive) | 
9 | Fc1ccccc1C1SCc2nc3cc4ccccc4cc3n21 (stereo not drawn) | 20.5 µM (inactive) | 28.8 µM (inactive) | 60.8 µM (inactive) | 94.8 |  | 43.9 µM (inactive) | > 100 µM (inactive) | 75.5 µM (inactive) | 35.1 µM (inactive) | 45.3 µM (inactive) | 34.4 µM (inactive) | 54.3 µM (inactive) | > 100 µM (inactive) | 71.1 µM (inactive) | 71.6 µM (inactive) | 36.1 µM (inactive) | 61.1 µM (inactive) | 57.9 µM (inactive) | > 100 µM (inactive) | 18.7 µM (inactive)
10 | Cn1nc(C(=O)N2CC(CCl)c3c2cc(N)c2ccccc32)cc1NC(=O)Nc1cc(C(=O)N2CC(CCl)c3c2cc(N)c2ccccc32)nn1C (stereo not drawn) | 0.0547 µM (active) | 0.508 µM (active) | 0.0116 µM (active) | 44.3 |  | 0.0215 µM (active) | < 0.01 µM (active) |  | 0.449 µM (active) | 0.0275 µM (active) | 1.55 µM (inactive) | 0.108 µM (active) | 0.13 µM (active) | 0.192 µM (active) | 0.3 µM (active) | 0.0323 µM (active) | 0.521 µM (active) | 0.107 µM (active) | 0.21 µM (active) | 
11 | CC(=O)O[C@H]1[C@H](OC(=O)CC(C)(O)CC(=O)O)C[C@]2(C)C3=C(CCC2C1(C)C)[C@]1(C)CC[C@H]([C@H]2CC[C@H](C(C)(C)O)OC2O)[C@@]1(C)[C@@H](O)C3 (stereo partly drawn) | 18.4 µM (inactive) | 15.8 µM (inactive) | 25.8 µM (inactive) | 17.2 | 16.9 µM (inactive) | 16.3 µM (inactive) | 19 µM (inactive) | 23.8 µM (inactive) | 19.7 µM (inactive) |  | 18.3 µM (inactive) | 16.9 µM (inactive) | 18.8 µM (inactive) | 17.2 µM (inactive) | 16.7 µM (inactive) | 17.5 µM (inactive) | 19.4 µM (inactive) | 19.4 µM (inactive) | 23.7 µM (inactive) | 
12 | Cc1cc(NC2=NCCO2)c2c(c1C)CCCC2 | 17.2 µM (inactive) | 10.1 µM (inactive) | 27.5 µM (inactive) | 16.7 | 0.906 µM (active) | 13.9 µM (inactive) | 17.4 µM (inactive) | 1.27 µM (inactive) | 15.7 µM (inactive) | 18.9 µM (inactive) | 12.6 µM (inactive) | 15.4 µM (inactive) |  | 15.7 µM (inactive) | 20.4 µM (inactive) | 22.2 µM (inactive) | 9.33 µM (inactive) | 15.2 µM (inactive) | 11.6 µM (inactive) | 
13 | [N-]=[N+]=NCc1nc(N)c2c3c(sc2n1)CCCC3 | 0.455 µM (active) | 3 µM (inactive) | 3.13 µM (inactive) | 2.76 | 0.402 µM (active) | 1.55 µM (inactive) | 3.29 µM (inactive) | 2.14 µM (inactive) | 0.631 µM (active) | 2.32 µM (inactive) | 7.38 µM (inactive) | 7.16 µM (inactive) | 9.38 µM (inactive) | 1.36 µM (inactive) | 11.6 µM (inactive) | 2.74 µM (inactive) | 4.22 µM (inactive) | 5.06 µM (inactive) | 1.55 µM (inactive) | 
14 | COc1cc(/C=C2\CCC(C)C3=C2N=c2s/c(=C/c4ccc(Cl)cc4)c(=O)n2C3c2cc(OC)c(OC)c(OC)c2)cc(OC)c1OC (stereo not drawn) | > 100 µM (inactive) | > 100 µM (inactive) | > 100 µM (inactive) | > 100 | > 100 µM (inactive) | > 100 µM (inactive) | > 100 µM (inactive) |  | > 100 µM (inactive) | > 100 µM (inactive) |  | > 100 µM (inactive) | > 100 µM (inactive) | > 100 µM (inactive) | > 100 µM (inactive) | > 100 µM (inactive) | > 100 µM (inactive) | > 100 µM (inactive) |  | 
15 | O=c1cccc2n1C[C@H]1CNC[C@H]2C1 | > 100 µM (inactive) | > 100 µM (inactive) | > 100 µM (inactive) | > 100 | > 100 µM (inactive) | > 100 µM (inactive) | > 100 µM (inactive) | > 100 µM (inactive) | > 100 µM (inactive) | > 100 µM (inactive) | > 100 µM (inactive) | > 100 µM (inactive) | > 100 µM (inactive) | > 100 µM (inactive) | > 100 µM (inactive) | > 100 µM (inactive) | > 100 µM (inactive) | > 100 µM (inactive) | > 100 µM (inactive) | 
16 | CCCCN=C(OC1C=CCCC1)SC (stereo not drawn) | > 100 µM (inactive) | > 100 µM (inactive) | > 100 µM (inactive) | > 100 | 43.4 µM (inactive) | > 100 µM (inactive) | > 100 µM (inactive) | > 100 µM (inactive) | > 100 µM (inactive) | > 100 µM (inactive) | > 100 µM (inactive) | > 100 µM (inactive) |  | > 100 µM (inactive) | > 100 µM (inactive) | > 100 µM (inactive) | > 100 µM (inactive) | > 100 µM (inactive) | > 100 µM (inactive) | 
